Where two headings read alike, the source gives them in different places.

Among the targets are urease (Canavalia ensiformis, UniProt P07374); lactate oxidase (Aerococcus viridans, UniProt Q44467); glucose oxidase (Aspergillus niger, UniProt P13006).
Test [1] deals with T1, Creatinine Amidohydrolase (Creatininase) (Pseudomonas putida, UniProt P83772).
T1 sequence (P83772 1-260): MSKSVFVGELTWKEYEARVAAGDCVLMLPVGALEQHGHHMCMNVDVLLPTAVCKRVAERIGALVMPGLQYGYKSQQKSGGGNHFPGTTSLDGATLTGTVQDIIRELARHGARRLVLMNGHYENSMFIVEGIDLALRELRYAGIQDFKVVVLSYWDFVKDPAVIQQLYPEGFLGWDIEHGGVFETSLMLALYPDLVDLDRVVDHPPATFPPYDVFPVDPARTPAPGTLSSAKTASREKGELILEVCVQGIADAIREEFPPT
To be noted: cited from earlier work; for reactivation of the inactive apoenzyme: addition of 0.5 mM, zinc ions removed from creatininase.

Test [2] has as its system Creatinine Amidohydrolase. To be noted: 1.0 mM solution; cited from earlier work.
The target in test [3] is heat-treated creatininase (Pseudomonas putida, UniProt P83772). To be noted: enzyme assays.
A further test concerns the target creatininase (Pseudomonas putida, UniProt P83772). The procedure:
The following examples are intended to illustrate the invention without limiting the invention. In all of the examples, creatininase from Pseudomonas putida was used, obtained from Roche Diagnostics, Mannheim, Germany.
The stability of the creatinine sensor was tested by observing the sensor responses to calibration solutions containing each of the substrates creatinine and creatine.
The calibration solutions were prepared by dissolving about 200 μM creatinine in the Radiometer Calibration Solution 1 S1720 and about 200 μM creatine in the Radiometer Calibration Solution 2 S1730. These solutions were repeatedly introduced into the apparatus one after the other and sensor responses were obtained.
It is convenient to depict the relation between the creatinine sensor response to creatinine relative to the creatinine sensor response to creatine by the following ratio: R=response to creatinine/response to creatine.
If R is constant, the creatininase activity is stable. A declining value for R indicates an overall loss of creatininase activity.
The same experiment as described above was conducted with five creatinine sensors having a significant initial excess of creatininase. In FIG. 4, R is depicted for this experiment.

glucose oxidase, sequence (P13006 17-605, species assumed): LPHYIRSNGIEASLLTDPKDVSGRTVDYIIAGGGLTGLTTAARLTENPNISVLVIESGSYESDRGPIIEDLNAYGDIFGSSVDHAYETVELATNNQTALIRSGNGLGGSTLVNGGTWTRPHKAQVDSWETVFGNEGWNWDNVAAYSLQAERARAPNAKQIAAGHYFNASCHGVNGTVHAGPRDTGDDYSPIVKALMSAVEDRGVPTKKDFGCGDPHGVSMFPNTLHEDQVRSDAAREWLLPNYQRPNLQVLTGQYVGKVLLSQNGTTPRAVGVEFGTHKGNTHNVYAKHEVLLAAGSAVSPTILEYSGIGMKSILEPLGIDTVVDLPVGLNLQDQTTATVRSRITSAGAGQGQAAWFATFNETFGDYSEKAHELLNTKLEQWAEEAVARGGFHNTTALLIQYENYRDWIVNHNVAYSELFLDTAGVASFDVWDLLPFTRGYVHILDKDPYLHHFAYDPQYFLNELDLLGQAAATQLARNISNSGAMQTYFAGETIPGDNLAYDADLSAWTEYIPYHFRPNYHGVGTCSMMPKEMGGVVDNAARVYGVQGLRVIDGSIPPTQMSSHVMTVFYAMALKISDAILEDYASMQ
urease, sequence (P07374 whole entry, looked up): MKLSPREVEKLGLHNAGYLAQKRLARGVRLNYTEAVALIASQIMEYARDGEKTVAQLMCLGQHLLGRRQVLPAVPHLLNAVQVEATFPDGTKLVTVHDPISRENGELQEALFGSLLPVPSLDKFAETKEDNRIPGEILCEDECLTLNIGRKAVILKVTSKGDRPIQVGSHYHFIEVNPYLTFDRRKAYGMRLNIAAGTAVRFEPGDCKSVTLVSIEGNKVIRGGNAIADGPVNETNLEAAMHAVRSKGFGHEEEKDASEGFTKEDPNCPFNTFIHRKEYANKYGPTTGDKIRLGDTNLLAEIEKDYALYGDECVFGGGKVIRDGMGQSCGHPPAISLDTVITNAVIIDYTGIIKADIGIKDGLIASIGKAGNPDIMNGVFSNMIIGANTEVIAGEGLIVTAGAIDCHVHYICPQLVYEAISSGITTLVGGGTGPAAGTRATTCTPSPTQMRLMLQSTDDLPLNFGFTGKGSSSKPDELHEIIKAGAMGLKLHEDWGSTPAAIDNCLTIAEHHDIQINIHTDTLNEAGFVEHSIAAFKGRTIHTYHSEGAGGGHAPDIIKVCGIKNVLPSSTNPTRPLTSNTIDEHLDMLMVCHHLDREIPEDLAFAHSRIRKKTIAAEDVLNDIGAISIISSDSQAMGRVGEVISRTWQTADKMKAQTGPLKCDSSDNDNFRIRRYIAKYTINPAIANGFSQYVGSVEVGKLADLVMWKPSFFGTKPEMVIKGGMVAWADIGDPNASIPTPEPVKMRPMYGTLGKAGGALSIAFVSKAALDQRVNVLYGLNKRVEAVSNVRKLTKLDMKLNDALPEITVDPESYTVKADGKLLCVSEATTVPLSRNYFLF
lactate oxidase, sequence (Q44467 whole entry, species assumed): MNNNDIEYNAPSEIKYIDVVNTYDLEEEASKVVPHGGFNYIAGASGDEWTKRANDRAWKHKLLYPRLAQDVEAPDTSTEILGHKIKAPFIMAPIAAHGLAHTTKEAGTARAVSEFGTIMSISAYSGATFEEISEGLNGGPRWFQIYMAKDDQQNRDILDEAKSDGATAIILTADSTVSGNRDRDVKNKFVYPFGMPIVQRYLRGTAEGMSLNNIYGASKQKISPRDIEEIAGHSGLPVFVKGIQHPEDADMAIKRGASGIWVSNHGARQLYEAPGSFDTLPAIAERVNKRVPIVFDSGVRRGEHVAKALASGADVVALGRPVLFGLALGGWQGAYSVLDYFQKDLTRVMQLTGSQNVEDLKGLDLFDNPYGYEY

`[Ca+2]` [Ca]: in test [1] (purified, heat-treated enzyme), the “inhibition of the activity of creatininase” value (from here on “inhibition”) is given as “inhibit slightly”.

Consider `[Co+2]` [Co], for which, in test [1], the “reactivation of the inactive apoenzyme” value is “reactivated”. In test [1] (purified, heat-treated enzyme), the “inhibition” value is “inhibit slightly”.

`O=C(O)CN(CCN(CC(=O)O)CC(=O)O)CC(=O)O` [EDTA, ethylenediamine tetraacetic acid]: the “inhibition” value in test [1] is reported as “only slight inhibition”.

Regarding `[Fe+2]` [Fe], in test [1], the “reactivation of the inactive apoenzyme” value is “reactivated”. The “inhibition” value in test [1] (purified, heat-treated enzyme) is reported as “inhibit slightly”.

Turning to `[Mg+2]` [Mg], the “reactivation of the inactive apoenzyme” value in test [1] is on record as “reactivated”. The “inhibition” value in test [1] (purified, heat-treated enzyme) is “inhibit slightly”.

Regarding `[Cl][Mn][Cl]` [MnCl2], in test [2], the “reactivation of metal ion depleted creatininase” value is “reactivated”.

In the case of `[Ni+2]` [Ni], in test [1], the “reactivation of the inactive apoenzyme” value was “reactivated”. Further, in test [1] (purified, heat-treated enzyme), the “inhibition” value is given as “inhibit slightly”.

As for `[Zn+2]` [Zn], the “reactivation of the inactive apoenzyme” value in test [1] is given as “reactivated”. For the same compound, the “inhibition” value in test [1] (purified, heat-treated enzyme) is recorded as “inhibit slightly”.

For the compound `[Mn+2]` [divalent manganese ion], on urease, the deactivation of urease entry is “not to deactivate”. The “deactivation of lactate oxidase” value on lactate oxidase was “not to deactivate”. Further, in test [1], the “reactivation of the inactive apoenzyme” value is “reactivated”. Moreover, the “inhibition” value in test [1] (purified, heat-treated enzyme) is given as “inhibit slightly”. Besides, the “effect on heat-treated creatininase” value in test [3] is on record as “favourable effect”. Besides, the “deactivation of glucose oxidase” value on glucose oxidase was “not to deactivate”. In addition, the “R = response to creatinine/response to creatine (relative sensor response)” value at creatininase (2 μM in Rinse Solution for 5½ days after 2¾ days without, two sensors with nearly no initial excess of creatininase, FIG. 3) is “approximately 0.8”; on creatininase (10 μM in Rinse Solutions after 18 days without (R had decreased to 0.9), five sensors with significant initial excess of creatininase, FIG. 4) it was “approximately 1.3”. Besides, the activation of creatininase entry on creatininase (concentrations of about 0.01 to about 150 μM, without adverse effect on the other enzymes of the dual sensor system) was “activate creatininase”. For the same compound, the “time for which the sensor response level was maintained” value is reported as “at least 5 days” on creatininase (continuous treatment at about 2 μM, FIG. 3) and “at least 5 days” on creatininase (continuous treatment at about 10 μM, FIG. 4).
